Laboratory results from the supplement of paper PMC10307832.

Experiments:
Test in all cases: relative viability (nuclei count vs DMSO), 5 days (fraction); higher = more cells survive
ALW-II-49-7 + Foretinib = compound: Cc1ccc(C(=O)Nc2cccc(C(F)(F)F)c2)cc1Nc1cncc(C(N)=O)c1 [ALW-II-49-7] + COc1cc2c(Oc3ccc(NC(=O)C4(C(=O)Nc5ccc(F)cc5)CC4)cc3F)ccnc2cc1OCCCN1CCOCC1 [Foretinib] (partner 0.25 µM)
How it was run: (§1)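 Lung cancer cell lines were pin-tool dosed in 1536-well plates on the day after seeding, with either a lone drug or a fixed anchor-drug dose plus five library-drug doses (not always all listed) in √10 steps. Nuclei were counted on 4× images after 5 days. Relative viability is the ratio of treated-well to vehicle-well nuclei counts, with each value a median of duplicate plates.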

Dasatinib + Trametinib = compound: Cc1nc(Nc2ncc(C(=O)Nc3c(C)cccc3Cl)s2)cc(N2CCN(CCO)CC2)n1 [Dasatinib] + CC(=O)Nc1cccc(-n2c(=O)n(C3CC3)c(=O)c3c(Nc4ccc(I)cc4F)n(C)c(=O)c(C)c32)c1 [Trametinib] (partner 0.02 µM)
How it was run: as §1

Dasatinib + Pictilisib = compound: Cc1nc(Nc2ncc(C(=O)Nc3c(C)cccc3Cl)s2)cc(N2CCN(CCO)CC2)n1 [Dasatinib] + CS(=O)(=O)N1CCN(Cc2cc3nc(-c4cccc5[nH]ncc45)nc(N4CCOCC4)c3s2)CC1 [Pictilisib] (partner 1 µM)
How it was run: as §1

Dasatinib + Olaparib = compound: Cc1nc(Nc2ncc(C(=O)Nc3c(C)cccc3Cl)s2)cc(N2CCN(CCO)CC2)n1 [Dasatinib] + O=C(c1cc(Cc2n[nH]c(=O)c3ccccc23)ccc1F)N1CCN(C(=O)C2CC2)CC1 [Olaparib] (partner 8 µM)
How it was run: as §1

Cell Line | relative viability (ALW-II-49-7 + Foretinib; first compound 0.08 µM) | relative viability (ALW-II-49-7 + Foretinib; first compound 0.253 µM) | relative viability (ALW-II-49-7 + Foretinib; first compound 0.8 µM) | relative viability (ALW-II-49-7 + Foretinib; first compound 2.53 µM) | relative viability (ALW-II-49-7 + Foretinib; first compound 8 µM) | relative viability (Dasatinib + Trametinib; first compound 0.005 µM) | relative viability (Dasatinib + Trametinib; first compound 0.01581 µM) | relative viability (Dasatinib + Trametinib; first compound 0.05 µM) | relative viability (Dasatinib + Trametinib; first compound 0.1581 µM) | relative viability (Dasatinib + Trametinib; first compound 0.5 µM) | relative viability (Dasatinib + Pictilisib; first compound 0.005 µM) | relative viability (Dasatinib + Pictilisib; first compound 0.01581 µM) | relative viability (Dasatinib + Pictilisib; first compound 0.05 µM) | relative viability (Dasatinib + Pictilisib; first compound 0.1581 µM) | relative viability (Dasatinib + Pictilisib; first compound 0.5 µM) | relative viability (Dasatinib + Olaparib; first compound 0.005 µM) | relative viability (Dasatinib + Olaparib; first compound 0.01581 µM) | relative viability (Dasatinib + Olaparib; first compound 0.05 µM) | relative viability (Dasatinib + Olaparib; first compound 0.1581 µM) | relative viability (Dasatinib + Olaparib; first compound 0.5 µM)
HCC-827 | 1.02 | 1.13 | 1.07 | 0.954 | 1.02 | 0.545 | 0.486 | 0.492 | 0.157 | 0.132 | 1.23 | 0.907 | 0.84 | 0.429 | 0.126 | 0.595 | 0.577 | 0.535 | 0.209 | 0.106
NCI-H650 | 1.16 | 1.06 | 1.01 | 0.92 | 0.638 | 0.888 | 0.899 | 0.847 | 0.503 | 0.458 | 0.862 | 0.794 | 0.898 | 0.497 | 0.345 | 0.395 | 0.357 | 0.415 | 0.392 | 0.263
BEN | 0.829 | 0.756 | 0.768 | 0.752 | 0.692 | 0.891 | 0.614 | 0.8 | 0.528 | 0.511 | 0.446 | 0.37 | 0.323 | 0.297 | 0.294 | 0.755 | 0.641 | 0.724 | 0.549 | 0.456
ChaGo-K-1 | 0.971 | 0.968 | 0.931 | 0.905 | 0.91 | 0.89 | 0.855 | 0.95 | 0.777 | 0.6 | 0.435 | 0.761 | 0.774 | 0.649 | 0.626 | 0.424 | 0.404 | 0.426 | 0.393 | 0.325
NCI-H23 | 0.923 | 1.01 | 1.06 | 0.993 | 1.03 | 0.376 | 0.278 | 0.231 | 0.188 | 0.168 | 0.335 | 0.26 | 0.376 | 0.28 | 0.181 | 0.359 | 0.301 | 0.307 | 0.297 | 0.282
NCI-H1975 | 0.918 | 1.05 | 1 | 0.909 | 0.891 | 0.364 | 0.25 | 0.272 | 0.232 | 0.177 | 0.315 | 0.225 | 0.207 | 0.0981 | 0.201 | 0.707 | 0.723 | 0.706 | 0.448 | 0.216
COR-L 105 | 1.02 | 0.949 | 0.992 | 0.99 | 1.23 | 0.445 | 0.358 | 0.389 | 0.336 | 0.253 | 0.359 | 0.383 | 0.316 | 0.308 | 0.245 | 0.517 | 0.494 | 0.617 | 0.452 | 0.336
LK-2 | – | 0.884 | 1.27 | 0.958 | 1.31 | 0.765 | 0.399 | 0.414 | 0.263 | 0.246 | 0.653 | 0.36 | 0.317 | 0.2 | 0.21 | 0.674 | 0.609 | 0.57 | 0.278 | 0.229
EKVX | 0.781 | 0.753 | 0.898 | 1.05 | 0.746 | 0.345 | 0.306 | 0.254 | 0.178 | 0.114 | 0.449 | 0.231 | 0.338 | 0.181 | 0.101 | 0.852 | 0.669 | 0.676 | 0.338 | 0.189
NCI-H2009 | 1.18 | 1.31 | 1.17 | 0.895 | 1.11 | 0.26 | 0.173 | 0.184 | 0.12 | 0.0876 | 0.705 | 0.503 | 0.41 | 0.193 | 0.124 | 0.715 | 0.731 | 0.772 | 0.556 | 0.127
NCI-H838 | 0.988 | 1.12 | 1.04 | 1.12 | 1.24 | 0.486 | 0.435 | 0.365 | 0.227 | 0.142 | 0.444 | 0.297 | 0.276 | 0.218 | 0.189 | 0.622 | 0.453 | 0.403 | 0.229 | 0.179
NCI-H2085 | 1.08 | 0.876 | 0.989 | 1.06 | 1.02 | 0.485 | 0.297 | 0.195 | 0.214 | 0.159 | 0.399 | 0.31 | 0.242 | 0.218 | 0.167 | 0.799 | 0.745 | 0.553 | 0.292 | 0.187
